Measured values taken from ChEMBL document CHEMBL4196110, “Covalent Inhibitors of the TEC Family of Kinases and Their Methods of Use” (ACS Med Chem Lett, 2018).
pIC50: −log10 of the molar value.

Molecular target: Tyrosine-protein kinase BTK (Homo sapiens, UniProt Q06187)
Assay: Inhibition of BTK (unknown origin) using fluorescently labeled peptide as substrate after 3 hrs by microfluidic mobility shift assay

Chain of Tyrosine-protein kinase BTK (Q06187 whole entry): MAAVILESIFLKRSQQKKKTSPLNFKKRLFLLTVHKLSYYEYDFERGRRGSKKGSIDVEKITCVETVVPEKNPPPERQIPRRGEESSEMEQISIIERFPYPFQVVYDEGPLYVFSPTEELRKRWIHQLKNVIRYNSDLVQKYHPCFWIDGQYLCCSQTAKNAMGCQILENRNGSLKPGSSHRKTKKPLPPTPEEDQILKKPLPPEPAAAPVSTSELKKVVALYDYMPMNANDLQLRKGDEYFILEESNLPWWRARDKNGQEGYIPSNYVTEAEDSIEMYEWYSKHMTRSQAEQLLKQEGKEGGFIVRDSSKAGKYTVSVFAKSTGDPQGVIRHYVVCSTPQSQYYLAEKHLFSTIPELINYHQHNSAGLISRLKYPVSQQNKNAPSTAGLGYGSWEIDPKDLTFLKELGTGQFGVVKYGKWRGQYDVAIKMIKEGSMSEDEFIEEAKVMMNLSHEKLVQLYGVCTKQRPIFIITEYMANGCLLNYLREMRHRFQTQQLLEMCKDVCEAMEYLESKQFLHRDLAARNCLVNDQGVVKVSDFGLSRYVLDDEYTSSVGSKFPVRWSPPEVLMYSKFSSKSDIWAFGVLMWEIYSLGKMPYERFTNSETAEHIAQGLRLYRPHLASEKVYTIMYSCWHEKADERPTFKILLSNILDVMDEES

SMILES | pIC50
C=CC(=O)N1CC[C@]2(C1)C[C@H](n1c(NC(=O)c3ccc(C(F)F)s3)nc3cc(CN[C@@H](C)C(C)(C)C)ccc31)C2 | 8.36
C=CC(=O)N1CC[C@]2(C1)C[C@H](n1c(NC(=O)c3ccc(-c4ccnc(N)c4)s3)nc3ccccc31)C2 | 9.20
C=CC(=O)N1CC[C@]2(C1)C[C@H](n1c(NC(=O)c3ccc(-c4cnco4)s3)nc3cc(NC)ccc31)C2 | 9.21
